In patent US20260234150A1, “COMPOUND FOR INHIBITING NLRP3, PREPARATION METHOD, AND USE” (DOVETREE MEDICINES UNUS, INC., priority 2023, published 2026):
Like-named read-outs stand apart in the source and are kept apart here.

Key:
[1] = target: T1, CYP2C9 (Homo sapiens, UniProt P11712); assay: CYP450 enzyme inhibition in human liver microsomes, CYP2C9; type: in vitro ADME; conditions: substrate Diclofenac Sodium, read-out: Inhibitory activity IC50 (μM) CYP2C9
T1 construct: 0.05 mg/mL liver microsome (BioIVT, IHG) phosphate buffer solution; tissue BioIVT IHG; host or cells: human liver microsomes
Experimental: This experiment incubates the compound, liver microsomes and different CYP subtype enzyme substrates in a 37° C. water bath to measure the amount of substrate metabolites produced and evaluate the inhibitory effect of the compound of the present disclosure on CYP enzymes based on the IC50 value.
i. The compound was diluted to 0, 0.02 mM, 0.06 mM, 0.2 mM, 0.6 mM, 2 mM and 6 mM concentrations with DMSO (Aladdin, catalog number: D103273-500 ml).
ii. The enzyme substrate solutions of each CYP subtype were prepared by phosphate buffer (sigma: V900050-500G).
iii. Sample incubation. […] After centrifugation at 4000 rpm and 4° C. for 40 min, the supernatant was diluted with pure water according to the response of the substrate metabolites and then detected by UPLC-MS/MS (Sciex, Q-Trap 4500). […]
The inhibitory effect of the compound on each P450 enzyme in human liver microsomes was calculated as the percentage of reduced metabolite formation compared with the non-inhibitory control (i.e., blank DMSO). The IC50 value for each P450 enzyme in human liver microsomes was calculated using the logarithm of the remaining activity and the inhibitor concentration using Graphpad Prism software. […]

[2] = Pharmacokinetic evaluation in mice; type: in vivo; conditions: mouse, plasma, ICR male mice
Experimental: Purpose: ICR male mice were selected as test animals. The LC-MS/MS method was used to quantitatively determine the drug concentration in the plasma of mice at different time points after intravenous injection or oral administration of the test compound to evaluate the pharmacokinetic characteristics of the test drug in mice.
Experimental materials: ICR mice (male, 15-35g, 5-10 weeks old, Shanghai Xipu-Bikai Experimental Animal Co., Ltd.)
The clear solution of the test compound was injected into ICR mice via the tail vein (without fasting, vehicle: 5% DMSO/10% Solutol/85% Saline) and administered to ICR mice by gavage (fasting for 10-14h). For intravenous administration, blood was collected from the submandibular venous plexus at 0.033, 0.083, 0.25, 0.5, 1, 2, 4, 8, and 24 hrs after administration, placed in an EDTA-K2 anticoagulant tube (Jiangsu Kangjian Medical Supplies Co., Ltd.), mixed, and centrifuged at 2-8° C., 6800 g for 6 minutes to obtain plasma; for oral gavage administration, blood was collected from the submandibular venous plexus at 0.083, 0.25, 0.5, 1, 2, 4, 6, 8, and 24 hrs after administration, placed in an EDTA-K2 anticoagulant tube (Jiangsu Kangjian Medical Supplies Co., Ltd.), mixed, and centrifuged at 2-8° C., 6800 g for 6 minutes to obtain plasma. The blood drug concentration was determined by LC-MS/MS, and the pharmacokinetic software Phoenix WinNonlinTM Version 7.0 (Pharsight, USA) was used to calculate the relevant pharmacokinetic parameters by the non-compartmental linear logarithmic trapezoidal method. The compounds of the present disclosure have good pharmacokinetic characteristics in mice, and the test results of representative compounds are shown in Table 8.

T1 sequence (P11712 whole entry): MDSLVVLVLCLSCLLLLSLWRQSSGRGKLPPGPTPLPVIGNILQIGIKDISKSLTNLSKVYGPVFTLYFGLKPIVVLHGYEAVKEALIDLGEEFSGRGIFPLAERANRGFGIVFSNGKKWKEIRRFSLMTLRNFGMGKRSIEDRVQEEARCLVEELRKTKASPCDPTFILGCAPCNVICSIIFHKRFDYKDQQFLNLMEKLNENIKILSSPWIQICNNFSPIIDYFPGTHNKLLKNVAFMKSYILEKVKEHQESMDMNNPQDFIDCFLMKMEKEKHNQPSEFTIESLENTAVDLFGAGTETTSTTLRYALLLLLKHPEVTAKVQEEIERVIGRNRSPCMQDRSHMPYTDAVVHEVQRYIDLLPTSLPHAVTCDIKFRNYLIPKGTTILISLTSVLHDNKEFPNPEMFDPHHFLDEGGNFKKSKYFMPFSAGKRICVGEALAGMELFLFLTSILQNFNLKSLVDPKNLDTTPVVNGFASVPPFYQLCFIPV

IC50 [1]: > 30 µM | clearance ([2]; 1 mg/kg, Dosage IV/PO 1/3 mg/kg): 19.2 mL/min/kg | Vd ([2]; 1 mg/kg, Dosage IV/PO 1/3 mg/kg, read-out: Vdss): 1.93 L/kg | Cmax ([2]; Dosage IV/PO 1/3 mg/kg): 1550 ng/mL | bioavailability ([2]; Dosage IV/PO 1/3 mg/kg): 137% | AUC(0-t) ([2]; IV 1 mg/kg, read-out: AUC0-last IV): 834 ng·h/mL | half-life ([2]; IV 1 mg/kg, read-out: T1/2 (IV, h) (converted)): 2.12 h | AUC(0-t) ([2]; PO 3 mg/kg, read-out: AUC0-last PO): 3440 ng·h/mL
Structure (SMILES): CC(=O)N1CCOC[C@H]1CNc1nc2nc(-c3c(C)cc(C(F)(F)F)cc3O)ccc2o1 [Compound 111]
